Values after ≈ are worked out from the molar mass of the structure shown. Values joined by “and” are separate entries in the source; they are usually repeats but may differ in a detail not shown here. Identical values can stand only once.
How the values were obtained:
Test in all cases: ≥ marks a high value that may be exact or a test limit, other limits are often not marked, values filed in µg/mL are converted to µM
[1] = tested on: Staphylococcus aureus ATCC 43300
[2] = tested on: Escherichia coli K99
[3] = tested on: Staphylococcus epidermidis ATCC 12228
[4] = tested on: Salmonella enterica subsp. enterica serovar Typhimurium ATCC 14028
[5] = tested on: Candida tropicalis CGMCC 2.1975
[6] = tested on: Pseudomonas aeruginosa ATCC 27853
[7] = tested on: Escherichia coli ATCC 25922
[8] = tested on: Escherichia coli 078
[9] = tested on: Salmonella enterica subsp. enterica serovar Typhimurium C77-31
[10] = tested on: Candida parapsilosis CGMCC 2.3989
[11] = tested on: Staphylococcus aureus ATCC 25923
[12] = tested on: Staphylococcus aureus ATCC 29213
[13] = tested on: Escherichia coli K88
[14] = tested on: Salmonella enterica subsp. enterica serovar Pullorum ATCC 7913
[15] = tested on: Candida albicans CGMCC 2.2086
[16] = tested on: Escherichia coli UB1005
[17] = tested on: Streptococcus mutans UA159
[18] = tested on: Streptococcus gordonii Challis DL1
[19] = tested on: Streptococcus sanguinis NY101
[20] = tested on: Streptococcus mitis ATCC 903
[21] = tested on: Staphylococcus aureus
[22] = tested on: Pseudomonas aeruginosa PAK
[23] = tested on: Bacillus subtilis 168
[24] = tested on: Pseudomonas aeruginosa
[25] = tested on: Escherichia coli B
[26] = tested on: Candida albicans

Compound	MIC [5]	MIC [10]	MIC [15]	MIC [17]	MIC [18]	MIC [19]	MIC [20]	MIC [21]	MIC [22]	MIC [26]	also measured
CC[C@H](C)[C@H](NC(=O)[C@H](CCCN=C(N)N)NC(=O)[C@H](C)NC(=O)[C@H](C)N)C(=O)N[C@H](C(=O)N[C@@H](CC(C)C)C(=O)N[C@@H](CCCN=C(N)N)C(=O)N[C@@H](CC(=O)O)C(=O)N[C@@H](CCCN=C(N)N)C(=O)N[C@@H](Cc1ccccc1)C(=O)N[C@@H](CCCN=C(N)N)C(N)=O)[C@@H](C)CC [AARIILRDRFR]	≥ 128 µM	≥ 128 µM	≥ 128 µM								MIC [1]: > 128 µM; MIC [2]: ≥ 128 µM; MIC [3]: > 128 µM; MIC [4]: > 128 µM; MIC [6]: > 128 µM; MIC [7]: > 128 µM; MIC [8]: ≥ 128 µM; MIC [9]: ≥ 128 µM; MIC [11]: > 128 µM; MIC [12]: > 128 µM; MIC [13]: ≥ 128 µM; MIC [14]: ≥ 128 µM; MIC [16]: ≥ 128 µM
CC[C@H](C)[C@H](NC(=O)[C@H](Cc1ccccc1)NC(=O)[C@H](Cc1cnc[nH]1)NC(=O)[C@H](CCCCN)NC(=O)[C@@H](NC(=O)[C@@H](N)Cc1ccccc1)[C@@H](C)CC)C(=O)N[C@@H](Cc1cnc[nH]1)C(=O)N[C@@H](CCCN=C(N)N)C(=O)N[C@@H](Cc1ccccc1)C(=O)N[C@@H](CO)C(=O)N[C@@H](C)C(=O)N[C@H](C(=O)N[C@@H](CCCN=C(N)N)C(=O)N[C@@H](Cc1c[nH]c2ccccc12)C(=O)N[C@@H](CCCN=C(N)N)C(=O)N[C@@H](CCCN=C(N)N)C(=O)N[C@@H](CC(C)C)C(=O)N[C@@H](CC(C)C)C(=O)N[C@@H](CCCCN)C(=O)N[C@@H](CCCCN)C(=O)N[C@@H](CC(C)C)C(=O)N[C@@H](Cc1cnc[nH]1)C(=O)N[C@@H](Cc1cnc[nH]1)C(=O)N[C@@H](CC(C)C)C(=O)N[C@@H](CC(C)C)C(=O)N[C@@H](Cc1cnc[nH]1)C(N)=O)[C@@H](C)O [FIKHFIHRFSATRWRRLLKKLHHLLH]				4.72 µM (≈ 16 µg/mL)	9.43 µM (≈ 32 µg/mL)	9.43 µM (≈ 32 µg/mL)	9.43 µM (≈ 32 µg/mL)	4.72 µM (≈ 16 µg/mL)	9.43 µM (≈ 32 µg/mL)		
CC[C@H](C)[C@H](NC(=O)[C@H](Cc1ccccc1)NC(=O)[C@H](Cc1cnc[nH]1)NC(=O)[C@H](CCCCN)NC(=O)[C@@H](NC(=O)[C@@H](N)Cc1ccccc1)[C@@H](C)CC)C(=O)N[C@@H](Cc1cnc[nH]1)C(=O)N[C@@H](CCCN=C(N)N)C(=O)N[C@@H](Cc1ccccc1)C(=O)N[C@@H](CO)C(=O)NCC(=O)NCC(=O)N[C@@H](CCCN=C(N)N)C(=O)N[C@@H](Cc1c[nH]c2ccccc12)C(=O)N[C@@H](CCCN=C(N)N)C(=O)N[C@@H](CCCN=C(N)N)C(=O)N[C@@H](CC(C)C)C(=O)N[C@@H](CC(C)C)C(=O)N[C@@H](CCCCN)C(=O)N[C@@H](CCCCN)C(=O)N[C@@H](CC(C)C)C(=O)N[C@@H](Cc1cnc[nH]1)C(=O)N[C@@H](Cc1cnc[nH]1)C(=O)N[C@@H](CC(C)C)C(=O)N[C@@H](CC(C)C)C(=O)N[C@@H](Cc1cnc[nH]1)C(N)=O [FIKHFIHRFSGGRWRRLLKKLHHLLH]				4.8 µM (≈ 16 µg/mL)	9.6 µM (≈ 32 µg/mL)	4.8 µM (≈ 16 µg/mL)	18.7 µM (≈ 62.5 µg/mL)	9.6 µM (≈ 32 µg/mL)	9.6 µM (≈ 32 µg/mL)		
CC[C@H](C)[C@H](NC(=O)[C@H](CC(C)C)NC(=O)[C@H](Cc1cnc[nH]1)NC(=O)CNC(=O)[C@@H]1CCCN1C(=O)[C@@H](NC(=O)[C@H](CCCCN)NC(=O)[C@H](CO)NC(=O)[C@H](Cc1c[nH]c2ccccc12)NC(=O)[C@H](CCSC)NC(=O)CN)[C@@H](C)CC)C(=O)N[C@@H](CCCN=C(N)N)C(N)=O [GMWSKIPGHLIR]								> 100 µM			MIC [23]: ≥ 100 µM; MIC [24]: > 100 µM; MIC [25]: 25 µM (≈ 34.8 µg/mL)
CC[C@H](C)[C@H](NC(=O)CNC(=O)[C@H](CCCCN)NC(=O)[C@@H](NC(=O)[C@H](CC(C)C)NC(=O)[C@H](CC(C)C)NC(=O)[C@@H](NC(=O)[C@H](CCCCN)NC(=O)CNC(=O)[C@@H](NC(=O)[C@@H](N)CCCCN)[C@@H](C)CC)C(C)C)C(C)C)C(=O)N[C@@H](CCCCN)C(=O)N[C@@H](CCCCN)C(=O)N[C@H](C(=O)NCC(=O)N[C@@H](CCCCN)C(=O)N[C@H](C(=O)N[C@@H](CC(C)C)C(N)=O)C(C)C)[C@@H](C)CC [KIGKVLLVKGIKKIGKVL]	16 µM (≈ 30.9 µg/mL)	≥ 32 µM	≥ 32 µM							> 64 µM and 32 µM	

Second part, led by results:

MIC [5]	MIC [10]	MIC [15]	MIC [17]	MIC [18]	MIC [19]	MIC [20]	MIC [21]	MIC [22]	MIC [26]	Compound	also measured
8 µM (≈ 16.6 µg/mL)	≥ 32 µM	≥ 32 µM							32 µM (≈ 66.5 µg/mL)	CC[C@H](C)[C@H](NC(=O)CNC(=O)[C@H](CCCCN)NC(=O)[C@H](Cc1ccccc1)NC(=O)[C@H](CC(C)C)NC(=O)[C@H](CC(C)C)NC(=O)[C@H](Cc1ccccc1)NC(=O)[C@H](CCCCN)NC(=O)CNC(=O)[C@@H](NC(=O)[C@@H](N)CCCCN)[C@@H](C)CC)C(=O)N[C@@H](CCCCN)C(=O)N[C@@H](CCCCN)C(=O)N[C@H](C(=O)NCC(=O)N[C@@H](CCCCN)C(=O)N[C@@H](Cc1ccccc1)C(=O)N[C@@H](CC(C)C)C(N)=O)[C@@H](C)CC [KIGKFLLFKGIKKIGKFL]	
			4.63 µM (≈ 8 µg/mL)	4.63 µM (≈ 8 µg/mL)	4.63 µM (≈ 8 µg/mL)	9.27 µM (≈ 16 µg/mL)	9.27 µM (≈ 16 µg/mL)	4.63 µM (≈ 8 µg/mL)		CC(C)C[C@H](NC(=O)[C@H](CC(C)C)NC(=O)[C@H](CCCCN)NC(=O)[C@H](CC(C)C)NC(=O)[C@H](CC(C)C)NC(=O)[C@H](CCC(N)=O)NC(=O)[C@H](CCCCN)NC(=O)[C@H](CC(C)C)NC(=O)[C@H](CC(C)C)NC(=O)[C@H](CCC(N)=O)NC(=O)[C@@H](N)CC(C)C)C(=O)N[C@@H](CCCCN)C(=O)N[C@@H](CCC(N)=O)C(=O)N[C@@H](Cc1ccccc1)C(N)=O [LQLLKQLLKLLKQF]	
8 µM (≈ 18 µg/mL)	16 µM (≈ 35.9 µg/mL)	8 µM (≈ 18 µg/mL)							8 µM and 5.66 µM	CC[C@H](C)[C@H](NC(=O)CNC(=O)[C@H](CCCN=C(N)N)NC(=O)[C@H](Cc1ccccc1)NC(=O)[C@H](CC(C)C)NC(=O)[C@H](CC(C)C)NC(=O)[C@H](Cc1ccccc1)NC(=O)[C@H](CCCN=C(N)N)NC(=O)CNC(=O)[C@@H](NC(=O)[C@@H](N)CCCN=C(N)N)[C@@H](C)CC)C(=O)N[C@@H](CCCN=C(N)N)C(=O)N[C@@H](CCCN=C(N)N)C(=O)N[C@H](C(=O)NCC(=O)N[C@@H](CCCN=C(N)N)C(=O)N[C@@H](Cc1ccccc1)C(=O)N[C@@H](CC(C)C)C(N)=O)[C@@H](C)CC [RIGRFLLFRGIRRIGRFL]	
			2.36 µM (≈ 8 µg/mL)	4.72 µM (≈ 16 µg/mL)	4.72 µM (≈ 16 µg/mL)	4.72 µM (≈ 16 µg/mL)	9.43 µM (≈ 32 µg/mL)	9.43 µM (≈ 32 µg/mL)		CC[C@H](C)[C@H](NC(=O)[C@H](Cc1ccccc1)NC(=O)[C@H](Cc1cnc[nH]1)NC(=O)[C@H](CCCCN)NC(=O)[C@@H](NC(=O)[C@H](Cc1ccccc1)NC(=O)[C@@H](NC(=O)[C@H](C)NC(=O)[C@H](CO)NC(=O)[C@H](Cc1cnc[nH]1)NC(=O)[C@H](CC(C)C)NC(=O)[C@H](CC(C)C)NC(=O)[C@H](Cc1cnc[nH]1)NC(=O)[C@H](Cc1cnc[nH]1)NC(=O)[C@H](CC(C)C)NC(=O)[C@H](CCCCN)NC(=O)[C@H](CCCCN)NC(=O)[C@H](CC(C)C)NC(=O)[C@H](CC(C)C)NC(=O)[C@H](CCCN=C(N)N)NC(=O)[C@H](CCCN=C(N)N)NC(=O)[C@H](Cc1c[nH]c2ccccc12)NC(=O)[C@@H](N)CCCN=C(N)N)[C@@H](C)O)[C@@H](C)CC)C(=O)N[C@@H](Cc1cnc[nH]1)C(=O)N[C@@H](CCCN=C(N)N)C(=O)N[C@@H](Cc1ccccc1)C(N)=O [RWRRLLKKLHHLLHSATFIKHFIHRF]	

Reference: DBAASP
